Assay results taken from patent US6911474B2, “Methods, compounds, and compositions for reducing body fat and modulating fatty acid metabolism” (The Regents of the University of California, priority 2001, dated 2005).

Key:
[1] = Acute food intake in 24-h food-deprived rats after i.p. administration; type: in vivo, rat
Procedure: (§1) Feeding experiments. Acute experiments. Food intake was measured in 24-h food-deprived rats (Navarro et al., J. Neurochem., 67:1982-1991 (1996)), administering drugs 15 min before food presentation. Subchronic experiments. Ad libitum fed rats received vehicle injections for three days. On day four, the animals were divided in two equal groups and gave them daily injections of vehicle or OEA (5 mg per kg at 1900 h) for 7 consecutive days, while measuring body weight, food intake and water intake.
The effects of systemically administered OEA on food intake in rats can be assessed using a 24 h fast. […] To define the selectivity of this response, various OEA analogs were evaluated for their ability to produce hypophagia.

[2] = Food intake after intracerebroventricular administration to 24 h food-deprived rats; type: in vivo, rat
Procedure: as §1

[3] = Subchronic administration: food intake, body weight and water intake; type: in vivo, rat; settings: 5 mg per kg, i.p., daily for seven days
Procedure: as §1
OEA was subchronically administered to rats.

[4] = target: T1, cannabinoid receptors (rat brain membranes) (Rattus norvegicus, UniProt P20272); assay: Displacement of cannabinoid binding to rat brain membranes in vitro
T1 construct: from tissue; host or cells: rat brain membranes
T1 sequence (P20272 whole entry): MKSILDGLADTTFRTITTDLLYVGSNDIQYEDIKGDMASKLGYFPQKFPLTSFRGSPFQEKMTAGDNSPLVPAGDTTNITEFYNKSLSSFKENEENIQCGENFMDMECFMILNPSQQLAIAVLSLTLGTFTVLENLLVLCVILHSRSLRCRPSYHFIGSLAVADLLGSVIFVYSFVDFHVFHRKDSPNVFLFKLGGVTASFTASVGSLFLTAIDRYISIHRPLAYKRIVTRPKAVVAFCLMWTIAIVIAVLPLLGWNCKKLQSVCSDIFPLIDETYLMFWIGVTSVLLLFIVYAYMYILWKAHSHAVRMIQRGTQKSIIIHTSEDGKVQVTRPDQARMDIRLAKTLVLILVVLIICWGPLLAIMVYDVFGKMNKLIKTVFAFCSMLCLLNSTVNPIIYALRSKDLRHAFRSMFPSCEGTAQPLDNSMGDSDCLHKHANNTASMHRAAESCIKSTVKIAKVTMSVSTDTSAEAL

Acute water intake = type: in vivo, rat; settings: 5 or 20 mg per kg; FIG. 4d
Procedure: FIG. 4. Oleoylethanolamide/[…] selectively suppresses food intake: […] Vehicle alone (70% DMSO in saline, 1 ml per kg, i.p.) had no significant effect on acute food intake; (b) time course of the hypophagic effects of oleoylethanolamide (20 mg per kg, i.p.) (squares) or vehicle (lozenges) on food intake. […] Empty bars, water intake; filled bars, saccharin intake. Effects of vehicle (V) or oleoylethanolamide (5 or 20 mg per kg) on: (d) water intake (expressed in ml per 4 h); (e) body temperature; (f) latency to jump in the hot plate analgesia test; (g) percent time spent in open arms in the elevated plus maze anxiety test; (h) number of crossings in the open field activity test; (i) number of operant responses for food. Asterisk, P<0.05, n=8-12 per group.

[5] = Body (rectal) temperature; type: in vivo, rat; settings: 5 or 20 mg per kg; FIG. 4e
Procedure: (§2) Other behavioral assays. The elevated plus maze test was conducted as described (Navarro et al., Neuroreport, 8:491-496 (1997)) after the administration of vehicle or OEA (20 mg per kg, i.p.). Horizontal activity in an open field (Beltramo et al., J. Neurosci., 20:3401-3407 (2000)) and pain threshold in the hot plate test (55° C.) (Beltramo et al., Science, 277:1094-1097 (1997)) were measured 15 min after injection of vehicle or OEA (20 mg per kg). Rectal temperature was measured using a digital thermometer (Martin-Calderón et al., Eur. J. Pharmacol., 344:77-86. (1998)).

[6] = Hot plate test, pain threshold; type: in vivo, rat; settings: FIG. 4f
Procedure: as §2

Open field activity test = type: in vivo, rat; settings: at a dose substantially higher than those required to produce hypophagia; FIG. 4h
Procedure: as §2

[7] = Operant responses for food; type: in vivo, rat; settings: at a dose substantially higher than those required to produce hypophagia; FIG. 4i
Source text: Operant responses for food. Rats were trained to lever press for food on a fixed ratio 1 (FR1) schedule of reinforcement, while food-restricted at 20 g of chow per rat per day (Rodriguez de Fonseca et al., Acta Pharmacol. Sin., 20:1109-1114 (1999)). Once stable responding was achieved, the animals were trained to acquire an FR5, time out 2-min schedule of food reinforcement and kept in limited access to food. When a stable baseline was obtained, the animals were used to test the effects of vehicle or OEA (1, 5 or 20 mg per kg) administered 15 min before lever presentation. Test duration was 60 min.

[8] = Circulating OEA level after i.p. administration (HPLC/MS); type: in vivo; settings: rat, plasma, ip, 1 hr after 5 mg per kg, read-out: circulating OEA levels
Procedure: HPLC/MS analyses. Plasma was prepared from blood obtained by cardiac puncture (Giuffrida et al., Anal. Biochem., 280:87-93 (2000)) and CSF was collected from the cisterna magna using a 27G ½ needle (Precisionglide, USA). FAEs and NAPE were extracted from tissues with methanol/chloroform and fractionated by column chromatography (Giuffrida et al., “Lipid Second Messengers” (ed. Laychock, S. G. & Rubin, R. P.) 113-133 (CRC Press LLC, Boca Raton, Fla., 1998)). FAEs were quantified by HPLC/MS, using an isotope dilution method (Giuffrida et al., Anal. Biochem., 280:87-93 (2000)). Individual NAPE species were identified and quantified by HPLC/MS, using an external standard method (Calignano et al., Nature, 408:96-101 (2000)).
OEA elicits hypophagia at physiologically relevant doses. […] Thus, the concentrations reached by OEA in blood during starvation can be sufficient to elicit notable behavioral responses.

Soleus muscle = assay: [14C]oleate oxidation to CO2 in soleus muscle; type: cell-based, rat
Cardiomyocyte = assay: [14C]oleate oxidation to CO2 in cardiomyocytes; type: cell-based, rat
Adipocyte = assay: Lypolysis (glycerol release) in adipocytes; type: cell-based, rat

CCCCCCCC/C=C\CCCCCCCC(=O)NCCO [OEA, Oleoylethanolamide]
half-maximally effective dose for hypophagia [1]: 5 mg per kg | suppression of food intake (hypophagia) ([1]; 24-h food-deprived rats, 15 min before food presentation, FIG. 4a,b): dose- and time-dependent suppression | effect on food intake after direct injection into the brain ventricles [2]: ineffective | food intake, 60 min ([2]; 0.4 μg per animal): 4.8 ± 0.4 | food intake, 120 min ([2]; 0.4 μg per animal): 6.6 ± 0.4 | food intake, 240 min ([2]; 0.4 μg per animal): 8.4 ± 0.4 | food intake, 60 min ([2]; 2 μg per animal): 4.9 ± 0.4 | food intake, 120 min ([2]; 2 μg per animal): 6.6 ± 0.6 | food intake, 240 min ([2]; 2 μg per animal): 8.7 ± 0.5 | food intake, 60 min ([2]; 10 μg per animal): 5.9 ± 0.2 | food intake, 120 min ([2]; 10 μg per animal): 8.1 ± 0.4 | food intake, 240 min ([2]; 10 μg per animal): 9.6 ± 0.7 | cumulative food intake ([3]; FIG. 5a): small, but significant decrease | weight gain ([3]; FIG. 5b,c): profound inhibition | water intake ([3]; FIG. 5d): did not affect | displacement of cannabinoid binding [4]: did not displace | water intake (Acute water intake): did not alter | body temperature [5]: did not alter | pain threshold [6]: did not alter | motor activity (Open field activity test): reduced | operant responses for food [7]: reduced | concentration at 1 hr [8]: 16.1 ± 2.6 nM | Stimulatory effect of 10 μM OEA (%) on [14C]oleate oxidation to CO2 (Soleus muscle; Soleus muscle, 10 μM, 30 min incubation): 36 ± 10% | fatty acid oxidation in words (Soleus muscle; primary cultures of skeletal muscle (soleus)): significantly stimulates | Stimulatory effect of 10 μM OEA (%) on [14C]oleate oxidation to CO2 (Cardiomyocyte; Cardiomyocyte, 10 μM, 30 min incubation): 37 ± 9% | fatty acid oxidation in words (Cardiomyocyte; primary cultures of heart cells): significantly stimulates | Stimulatory effect of 10 μM OEA (%) on lypolysis (glycerol release) (Adipocyte; Adipocyte, 10 μM, 30 min incubation): 38 ± 16% | mobilization of triacylglycerol stores (Adipocyte; primary white adipose tissue cells): significant mobilization
